Results taken from patent publication US10550142B2, “Quercetin-based compound” (AMOREPACIFIC CORPORATION, priority 2016, dated 2020).

Biological target: T1, β-amyloid (Aβ1-42) (Homo sapiens, UniProt P05067)
T1 construct: β-amyloid (Aβ1-42, AnaSpec Inc, USA) was obtained; purchased AnaSpec Inc, USA
Test: Beta-amyloid aggregation inhibition, fluorescence analysis (Thioflavin T assay)
Type: biochemical
Conditions: compound 10 μM; for Increased RFU (amount of aggregated β-amyloid): Aβ1-42 0.1 mg/ml, 37° C., 150 minutes; for Increased RFU (% of Pos.Cont.): aggregated β-amyloid compared to the positive control (no compound) = 100; for decreased aggregation compared with the positive control: positive control taken as 100%
Protocol: The beta-amyloid aggregation inhibitory effect of quercetin 3-O-[3-O″-(E)-p-coumaroyl][β-D-glucopyranosyl-(1→3)-O-α-L-rhamnopyranosyl-(1→6)-O-β-D-glucopyranoside] and quercetin 3-O-[3-O″-(E)-p-coumaroyl][α-L-rhamnopyranosyl-(1→6)-O-β-D-glucopyranoside] was determined by fluorescence analysis (Thioflavin T assay). Specifically, β-amyloid (Aβ1-42, AnaSpec Inc, USA) was obtained and used at a concentration of 0.1 mg/ml. It was stored at −80° C. prior to use. Each of morin (20 μM), phenol red (20 μM), quercetin 3-O-[3-O″-(E)-p-coumaroyl][β-D-glucopyranosyl-(1→3)-O-α-L-rhamnopyranosyl-(1→6)-O-β-D-glucopyranoside] (1 mg/ml), and quercetin 3-O-[3-O″-(E)-p-coumaroyl][α-L-rhamnopyranosyl-(1→6)-O-β-D-glucopyranoside] (1 mg/ml) was diluted to these concentrations in DMSO. In order to determine the degree of inhibition of Aβ1-42 aggregation, each compound at the above concentration was diluted to 10 μM in 50 μL of 0.01 M sodium phosphate buffer solution. Then, 40 μL of 0.1 mg/ml Aβ1-42 was added thereto, followed by addition of 10 μL of 2 mM Thioflavin T. The fluorescence was then measured with a fluorescence spectrometer (RF-5300PC, SHIMADZU CORPORATION, Japan) at 37° C. and intervals of 5 minutes for 150 minutes. In the table above, “RFU” denotes relative fluorescence unit, and “increased RFU” indicates the amount of aggregated β-amyloid. “Increased RFU (% of Pos.Cont.)” indicates the percentage of aggregated β-amyloid compared to the positive control. “Novel substance 31” indicates quercetin 3-O-[3-O″-(E)-p-coumaroyl][β-D-glucopyranosyl-(1→3)-O-α-L-rhamnopyranosyl-(1→6)-O-β-D-glucopyranoside], and “novel substance 32” indicates quercetin 3-O-[3-O″-(E)-p-coumaroyl][α-L-rhamnopyranosyl-(1→6)-O-β-D-glucopyranoside].

T1 sequence (P05067 672-713 limits assumed): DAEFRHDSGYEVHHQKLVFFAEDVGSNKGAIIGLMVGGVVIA

## CC1OC(OCC2OC(Oc3c(-c4ccc(O)c(O)c4)oc4cc(O)cc(O)c4c3=O)C(O)C(OC(=O)/C=C/c3ccc(O)cc3)C2O)C(O)C(O)C1O [Novel substance 32, quercetin 3-O-[3-O″-(E)-p-coumaroyl][α-L-rhamnopyranosyl-(1→6)-O-β-D-glucopyranoside]]
  Increased RFU (amount of aggregated β-amyloid): 12148 RFU
  Increased RFU (% of Pos.Cont.): 83.2%
  decreased aggregation compared with the positive control: 16.8%

## CC1OC(OCC2OC(Oc3c(-c4ccc(O)c(O)c4)oc4cc(O)cc(O)c4c3=O)C(O)C(OC(=O)/C=C/c3ccc(O)cc3)C2O)C(O)C(OC2OC(CO)C(O)C(O)C2O)C1O [Novel substance 31, quercetin 3-O-[3-O″-(E)-p-coumaroyl][β-D-glucopyranosyl-(1→3)-O-α-L-rhamnopyranosyl-(1→6)-O-β-D-glucopyranoside]]
  Increased RFU (amount of aggregated β-amyloid): 12955 RFU
  Increased RFU (% of Pos.Cont.): 88.8%
  decreased aggregation compared with the positive control: 11.2%
